Experiments:
in vitro = conditions: male, Sprague-Dawley, rat
Procedure: (§1) Identification of toxicity markers was performed by microarray analysis and by the AlamarBlue® assay, a classical measure of cytotoxicity. The AlamarBlue® assay was performed in triplicate.
(§2) The source of the primary rat hepatocytes was Sprague Dawley Outbred CDs Rats (CRL:CD®[SD] IGS BR, Charles River Laboratories). […] Primary rat hepatocytes were received the day after the cells were removed from the animals. After arrival, the cells, the cells were incubated overnight (˜15 hrs) before the toxin was added to the cultures. […] Toxin or vehicle was administered to hepatocyte cultures as follows. For each treatment, i.e., vehicle alone, vehicle+toxin at low dose, or vehicle+toxin at high dose, cells were harvested after 3, 6 and 24-hour incubations with the toxin solution or with the vehicle.
(§3) The AlamarBlue® assay was performed as follows, using only the 24-hour time point samples. • 1. […] The culture medium (HIM) was removed from each well and replaced with 500 μl of fresh HIM following arrival of the cells, and the cells were incubated overnight (approximately 15 hrs) at 37° C., 5% CO2. • 3. The next day, the HIM was removed and 500 μl of the medium containing either vehicle or a dose of toxin was added. • 4. Lysis solution was used as a negative control. 450 μl medium+50 μl 9% Triton X100 were added to each of 3 wells containing cells, for a final Triton concentration of 1%. • 5. The cells in all wells were incubated for 24 hours at 37° C., 5% CO2. • 6. HIM medium was removed, and a solution containing 500 μl of fresh HIM medium+50 μl AlamarBlue® (BioSource International, Inc., Cat. No. DAL1100) was added to each well. • 7. The cells were incubated at 37° C., 5% CO2 for 2 hours. • 8. 100 μl medium was removed from each well of the 24-well plate and added to a well of a 96-well plate. […] Alternatively, two absorbance readings can be measured for the oxidized (600 nm) and the reduced (570 nm) form of AlamarBlueg. After obtaining absorbance readings, results were calculated according to the manufacturer's protocol provided in the product description. • 9. The data were evaluated to determine whether or not the toxin reduced cell viability. If so, the dose of the toxin that reduced cell viability by ˜10-20% was determined. Collection of RNA from Rat Hepatocytes

patients [1] = conditions: 180 reported cases; cited from earlier work
rats [2] = test: AY-25329 14 day rat study: serum chemistry and light microscopy; format: in vivo
Text: The present inventors have noted indications of liver and renal effects of AY-25329 by changes in serum chemistry. […] Most of these markers of renal and liver dysfunction remained altered throughout the 14 day study period.

primary rat hepatocytes = test: AlamarBlue cell viability assay; conditions: 24 hours
Procedure: as §1, §2, §3

[3] = system: male Sprague Dawley (SD) rats; conditions: within 48 hours post dose; 0.1, 1, 2, 3, 4 mL/kg ip; […] po; cited from earlier work
patients [4] = conditions: human, in vivo; cited from earlier work
[5] = oral doses; cited from earlier work
rats [6] = test: Lovastatin dosing of rats, liver tissue examination; format: in vivo, rat

Q: For `CN(C)CCCN1c2ccccc2Sc2ccc(Cl)cc21` [Chlorpromazine], which viability at 24 h, 3 uM (in vitro) is on record?
A: The viability at 24 h, 3 uM was about 100%.

Q: Which viability at 24 h, 1 mM (in vitro) does the source give for `CN(Cc1cnc2nc(N)nc(N)c2n1)c1ccc(C(=O)N[C@@H](CCC(=O)O)C(=O)O)cc1` [Methotrexate] here?
A: Its viability at 24 h, 1 mM is about 100%.

Q: What about the viability at 24 h, 10 mM (in vitro) of the same compound?
A: The viability at 24 h, 10 mM was about 90%.

Q: Which “jaundice, share of the symptomatic patients” value (patients [1]) does the source give for `O=C(O)Cc1ccccc1Nc1c(Cl)cccc1Cl` [Diclofenac] here?
A: Its value is 75%.

Q: And the viability at 24 h, 55 uM (in vitro)?
A: The viability at 24 h, 55 uM was about 100%.

Q: What about the viability at 24 h, 550 uM (in vitro) of the same compound?
A: The viability at 24 h, 550 uM was about 70%.

Q: Which results are given for `O=C(CCN1CCN2CCCC2C1)N1c2ccccc2Sc2ccc(Cl)cc21` (stereo not shown) [AY-25329]?
A: light microscopic analysis, effects in the liver (rats [2]; 6 and 24 hours): increased number of hepatocytic mitotic figures and decreased glycogen content; findings after repeated dosing (rats [2]; 14 days of repeated dosing, 250 mg/kg/day): nephrosis and alterations in the peripheral lobes of the liver and in the cytoplasm of hepatocytes; serum levels of creatinine, BUN, ALT, triglycerides and cholesterol (rats [2]; as early as 6 hours after the first dose): statistically significant increases; viability at 24 h, 5 uM (in vitro): ~100%; viability at 24 h, 50 uM (in vitro): ~90%

Q: What does the source list for `COc1ccc2c(c1)c(CC(=O)O)c(C)n2C(=O)c1ccc(Cl)cc1` [Indomethacin]?
A: viability at 24 h, 0.1 mM (in vitro): ~100%; viability at 24 h, 1 mM (in vitro): 85 to 90%

Q: Which viability at 24 h, 4 uM (in vitro) does the source give for `CC/C(=C(\c1ccccc1)c1ccc(OCCN(C)C)cc1)c1ccccc1` [Tamoxifen] here?
A: Its viability at 24 h, 4 uM is about 100%.

Q: What about the viability at 24 h, 40 uM (in vitro) of the same compound?
A: Its viability at 24 h, 40 uM is about 45%.

Q: Which “% viability by AlamarBlue test” value (primary rat hepatocytes; high dose 100 uM) does the source give for `C#C[C@]1(O)CC[C@H]2[C@@H]3CCc4cc(O)ccc4[C@H]3CC[C@@]21C` [17α-ethinylestradiol] here?
A: Its value is about 80%.

Q: What about the “% viability by AlamarBlue test” value (primary rat hepatocytes; low dose 10 uM) of the same compound?
A: Its value is about 100%.

Q: Which viability at 24 h, 0.5 mM (in vitro) does the source give for `CCOC(=O)C(C)(C)Oc1ccc(Cl)cc1` [Clofibrate] here?
A: Its viability at 24 h, 0.5 mM is about 100%.

Q: What about the viability at 24 h, 5 mM (in vitro) of the same compound?
A: Its viability at 24 h, 5 mM is 80 to 85%.

Q: For `CCC1(c2ccccc2)C(=O)NC(=O)NC1=O` [Phenobarbital], which viability at 24 h, 0.8 mM (in vitro) is on record?
A: Its viability at 24 h, 0.8 mM is about 100%.

Q: And the viability at 24 h, 8 mM (in vitro)?
A: Its viability at 24 h, 8 mM is over 95%.

Q: Which results are given for `Cc1cccc(Nc2cc(Cl)nc(SCC(=O)O)n2)c1C` [Wy-14643]?
A: viability at 24 h, 10 uM (in vitro): ~100%; viability at 24 h, 100 uM (in vitro): ~90%

Q: Which “ALT and AST peak levels, fold increases” value [3] does the source give for `ClC(Cl)(Cl)Cl` [CCl4, carbon tetrachloride] here?
A: Its value is 5-10 fold.

Q: And the viability at 24 h, 0.1 mM (in vitro)?
A: Its viability at 24 h, 0.1 mM is about 100%.

Q: And the viability at 24 h, 10 mM (in vitro)?
A: The viability at 24 h, 10 mM was 80 to 85%.

Q: What does the source list for `CN(C)N=O` [DMN, dimethylnitrosamine]?
A: % viability by AlamarBlue test (primary rat hepatocytes; high dose 100 mM): ~80-85%; % viability by AlamarBlue test (primary rat hepatocytes; low dose 1 mM): ~100%

Q: Which viability at 24 h, 0.1 mM (in vitro) does the source give for `CN(C)[C@@H]1C(O)=C(C(N)=O)C(=O)[C@@]2(O)C(O)=C3C(=O)c4c(O)cccc4[C@@](C)(O)[C@H]3C[C@@H]12` [Tetracycline] here?
A: Its viability at 24 h, 0.1 mM is about 100%.

Q: And the viability at 24 h, 1 mM (in vitro)?
A: The viability at 24 h, 1 mM was 85 to 90%.

Q: With `Cc1ccc(C)c(OCCCC(C)(C)C(=O)O)c1` [Gemfibrozil, gemfibrozil] as the compound, how does the viability at 24 h, 0.3 mM (in vitro) read?
A: The viability at 24 h, 0.3 mM was about 100%.

Q: What about the viability at 24 h, 3 mM (in vitro) of the same compound?
A: The viability at 24 h, 3 mM was about 50%.

Q: For `NN` [Hydrazine], which viability at 24 h, 0.1 mM (in vitro) is on record?
A: Its viability at 24 h, 0.1 mM is 90 to 95%.

Q: What about the viability at 24 h, 1 mM (in vitro) of the same compound?
A: The viability at 24 h, 1 mM was 80 to 85%.

Q: For `O=C(O)c1cc(-c2ccc(F)cc2F)ccc1O` [Diflunisal], which viability at 24 h, 30 uM (in vitro) is on record?
A: Its viability at 24 h, 30 uM is about 100%.

Q: What about the viability at 24 h, 300 uM (in vitro) of the same compound?
A: Its viability at 24 h, 300 uM is 85 to 90%.

Q: Which viability at 24 h, 25 uM (in vitro) does the source give for `S=C=Nc1cccc2ccccc12` [ANIT, α-naphthylisothiocyanate] here?
A: Its viability at 24 h, 25 uM is about 100%.

Q: What about the viability at 24 h, 250 uM (in vitro) of the same compound?
A: Its viability at 24 h, 250 uM is about 60%.

Q: Which “patients with elevated levels of hepatic enzymes” value (patients [4]) does the source give for `CCCC(CCC)C(=O)O` [Valproate, n-dipropylacetic acid] here?
A: The value was “about 40%”.

Q: And the viability at 24 h, 0.4 mg/ml (in vitro)?
A: Its viability at 24 h, 0.4 mg/ml is about 100%.

Q: Which results are given for `CC(=O)O[C@]1(C(C)=O)CC[C@H]2[C@@H]3C=C(Cl)C4=CC(=O)[C@@H]5C[C@@H]5[C@]4(C)[C@H]3CC[C@@]21C` [Cyproterone acetate]?
A: viability at 24 h, 40 uM (in vitro): ~100%; viability at 24 h, 400 uM (in vitro): 65 to 70%

Q: Which results are given for `CC[C@H](C)C(=O)O[C@H]1C[C@@H](C)C=C2C=C[C@H](C)[C@H](CC[C@@H]3C[C@@H](O)CC(=O)O3)[C@H]21` [Lovastatin]?
A: metabolites excreted in the urine [5]: less than 13%; effects in liver tissue (rats [6]; 9 or 90 mg/kg twice a day, after 6 or after 24 hours): no effects were noted; effects in liver cells (rats [6]; after 14 days of treatment at the higher dosage (90 mg/kg twice a day)): abnormal vacuolization of the cytoplasm; viability at 24 h, 0.1 mM (in vitro): ~100%; viability at 24 h, 1 mM (in vitro): ~100%

Q: For `NC(=O)N1c2ccccc2C=Cc2ccccc21` [Carbamazepine], which viability at 24 h, 0.01 mM (in vitro) is on record?
A: Its viability at 24 h, 0.01 mM is about 100%.

Q: And the viability at 24 h, 1 mM (in vitro)?
A: Its viability at 24 h, 1 mM is about 90%.
